Assay results as given in patent publication US20150216168A1, “USE OF SUBSTITUTED 2-AMIDOBENZIMIDAZOLES, 2-AMIDOBENZOXAZOLES AND 2-AMIDOBENZOTHIAZOLES OR SALTS THEREOF AS ACTIVE SUBSTANCES AGAINST ABIOTIC PLANT STRESS” (BAYER CROPSCIENCE AG, priority 2012, published 2015).

Columns and labels:
[1] = tested on: Zea mays; experiment: Drought stress test on greenhouse crop plants, spray application, corn; assay type: in vivo; conditions: 250 g/ha
Description: (§1) Seeds of monocotyledonous and dicotyledonous crop plants were laid out in sandy loam in wood-fiber pots, covered with soil or sand and cultivated in a greenhouse under good growth conditions. The test plants were treated at the early leaf stage (BBCH10-BBCH13). To assure uniform water supply before commencement of stress, the potted plants were supplied with water by dam irrigation prior to substance application. The compounds according to the invention, formulated in the form of wettable powders (WP), were sprayed onto the green parts of the plants as an aqueous suspension at an equivalent water application rate of 600 I/ha with addition of 0.2% wetting agent (e.g. agrotin). Substance application was followed immediately by stress treatment of the plants. For this purpose, the pots were transferred into plastic inserts in order to prevent them from subsequently drying out too quickly. Drought stress was induced by gradual drying out under the following conditions:
(§2) “Day”: 14 hours with illumination at 26° C. […]
(§3) After the recovery phase had ended, the intensities of damage were analyzed in visual comparison to untreated, unstressed controls for the same age. The intensity of damage was first recorded as a percentage (100%=plants have died, 0%=like control plants). […]
(§4) In each trial, 3 pots per crop and dosage were treated and evaluated; the resulting efficacies are thus averages. […]

[2] = tested on: Hordeum vulgare; experiment: Drought stress test on greenhouse crop plants, spray application, barley; assay type: in vivo; conditions: 500 g/ha
Description: as §1, §2, §3, §4

NC(=O)c1cccc2oc(-c3ccc(Cl)cc3Cl)nc12 [B1-18, 2-(2,4-Dichlorophenyl)-1,3-benzoxazole-4-carboxamide]
EF (ZEAMX): efficacy, percentage reduction in the intensity of damage [1]: >5% | EF (HORVS): efficacy, percentage reduction in the intensity of damage [2]: >5%
